Experimental data reported in patent US20220242846A1, “ISOINDOLINONE COMPOUNDS” (Monte Rosa Therapeutics AG, priority 2019, published 2022).
Where two headings read alike, the source gives them in different places.

How the values were obtained:
[1] = tested on: Human mammary epithelial cells (HMEC) engineered to express EGFP alone (non myc); experiment: 3D spheroid assay, non myc-HMEC (CellTiterGlo3D viability); type: cell-based; details: 120 h, 3D spheroids, 5 days with compound, read-out: Code: EC50 value in the non myc-HMEC assay
Procedure: (§1) 3D Spheroid Experiments—HMEC
(§2) Human mammary epithelial cells (HMEC) were engineered to express either c-myc tagged with EGFP or EGFP alone (non myc) (analogous but distinct from Kessler J D et al, Science. 2012 Jan. 20; 335(6066):348-53. doi: 10.1126/science.1212728; Hsu T Y et al, Nature. 2015 Sep. 17; 525(7569):384-8. doi: 10.1038/nature14985). The engineered cells were seeded at 1000 (myc) or 4000 (non myc) cells/well in a 384 ultra-low attachment plate in a total volume of 40 µL, HMEC cell culture media (DMEM/F12+10% HI-FBS+15 mM HEPES+0.5 ug/ml Hydrocortisone+10 ug/ml Insulin+20 ng/ml EGF). Plates were spun at 1200 rpm for 5 minutes at room temperature to ensure that cells have gathered in the middle of the well and incubated at 37° C. for 48 hrs before firing with compounds. On Day 2 (48 h post seeding) cells were imaged (brightfield and EGFP fluorescence) using the Celigo imaging cytometer prior to firing compounds. For primary screens, compounds were added at three concentrations (1.25, 10 and 30 uM) in a volume of 120 nL using the ECHO acoustic dispenser and spun at 2000 rpm for 2 minutes at room temperature before incubating at 37° C. for 5 days. […] On Day 7, prior to measuring cell viability using CellTiterGlo3D, cells were imaged (brightfield and EGFP fluorescence) on the Celigo imaging cytometer. The CellTiterGlo3D reagent is added at 30uL/well and incubated at room temperature for 30mins After 30mins of incubation, luminescence readings were recorded using the Perkin Elmer EnVision reader.

[2] = tested on: Human mammary epithelial cells (HMEC) engineered to express c-myc tagged with EGFP; experiment: 3D spheroid assay, myc-HMEC (CellTiterGlo3D viability); type: cell-based
Procedure: as §1, §2

GSPT1 = GSPT1 (Homo sapiens, UniProt P15170+Q96SW2); experiment: Immunofluorescence assay for GSPT1 degradation in CAL-51 cells; type: cell-based; parameters: CAL-51 cells were purchased from DSMZ (cat. Number ACC302); endogenous in cells; host or cells: CAL-51 (DSMZ ACC302); details: compound treatment 6 hours
Method in brief: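 CAL-51 cells on fibronectin-coated plates treated 6 h with compound (30 μM to 0.1 nM); fixed, stained with anti-GSPT1/Alexa-488, phalloidin and DAPI, imaged by high-content microscopy. Mean GSPT1 intensity per cell normalized to controls; DC50 by non-linear regression.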

[3] = target: T1, Full length wild-type cereblon CRBN (Homo sapiens, UniProt Q96SW2); experiment: Fluorescence polarization (FP) assay indicating cereblon binding; details: CRBN 80.0 nM, fluorescent probe 5 nM, FP measured after 12 hours; read-out: rFP IC50
T1 construct: Full length wild-type cereblon CRBN (80.0 nM, 10 μL) was incubated in assay buffer
Method in brief: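 Full-length wild-type human CRBN (80.0 nM) preincubated 30 min at room temperature with compound (12-point curve, 300-0.937 or 3000-9.3 nM) in HEPES pH 8.0, NaCl, TCEP, Tween 20. Thalidomide-based Cy5-type probe then added at 5 nM final; FP read after 12 h (ex 590, em 675 nm), normalized to DMSO, IC50 derived.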

[4] = Homo sapiens, HMEC, 120 h, 3D spheroids, 5 days with compound, read-out: Code: EC50 value in the myc-HMEC assay
[5] = read-out: Code: activity for GSPT1 degradation (DC50)
[6] = myc-HMEC 3D spheroids (compounds with code D and E), 5 days, read-out: EC50

T1 sequence (Q96SW2 whole entry): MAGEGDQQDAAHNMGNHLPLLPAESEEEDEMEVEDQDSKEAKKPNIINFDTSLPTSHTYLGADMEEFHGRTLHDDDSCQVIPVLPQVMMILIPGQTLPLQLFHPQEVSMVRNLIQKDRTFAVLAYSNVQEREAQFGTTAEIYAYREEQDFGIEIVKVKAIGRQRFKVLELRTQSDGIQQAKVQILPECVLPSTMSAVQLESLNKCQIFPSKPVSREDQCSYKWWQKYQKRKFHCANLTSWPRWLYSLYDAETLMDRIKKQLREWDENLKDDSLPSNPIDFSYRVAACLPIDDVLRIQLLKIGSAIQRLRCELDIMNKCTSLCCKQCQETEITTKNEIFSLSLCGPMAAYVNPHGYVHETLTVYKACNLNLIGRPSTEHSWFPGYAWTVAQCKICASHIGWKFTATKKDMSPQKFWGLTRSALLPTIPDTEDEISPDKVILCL
Sequence of GSPT1 (P15170 whole entry): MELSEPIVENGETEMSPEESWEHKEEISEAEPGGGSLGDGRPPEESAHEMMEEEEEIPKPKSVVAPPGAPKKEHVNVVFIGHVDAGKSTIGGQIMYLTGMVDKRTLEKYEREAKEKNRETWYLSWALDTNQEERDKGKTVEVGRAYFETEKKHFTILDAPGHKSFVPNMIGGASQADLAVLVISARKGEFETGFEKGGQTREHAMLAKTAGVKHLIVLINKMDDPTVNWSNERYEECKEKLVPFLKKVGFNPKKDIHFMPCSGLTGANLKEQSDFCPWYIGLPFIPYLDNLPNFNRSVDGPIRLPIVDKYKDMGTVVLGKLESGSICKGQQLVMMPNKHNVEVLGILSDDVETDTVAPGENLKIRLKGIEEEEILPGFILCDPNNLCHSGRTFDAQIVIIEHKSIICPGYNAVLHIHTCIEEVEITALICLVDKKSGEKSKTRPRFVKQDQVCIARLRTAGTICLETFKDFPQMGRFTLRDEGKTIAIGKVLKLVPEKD
Sequence of GSPT1 (Q96SW2 whole entry): as the sequence (Q96SW2 whole entry) above
Sequence of GSPT1 (Q16531 2-1140 partner limits assumed): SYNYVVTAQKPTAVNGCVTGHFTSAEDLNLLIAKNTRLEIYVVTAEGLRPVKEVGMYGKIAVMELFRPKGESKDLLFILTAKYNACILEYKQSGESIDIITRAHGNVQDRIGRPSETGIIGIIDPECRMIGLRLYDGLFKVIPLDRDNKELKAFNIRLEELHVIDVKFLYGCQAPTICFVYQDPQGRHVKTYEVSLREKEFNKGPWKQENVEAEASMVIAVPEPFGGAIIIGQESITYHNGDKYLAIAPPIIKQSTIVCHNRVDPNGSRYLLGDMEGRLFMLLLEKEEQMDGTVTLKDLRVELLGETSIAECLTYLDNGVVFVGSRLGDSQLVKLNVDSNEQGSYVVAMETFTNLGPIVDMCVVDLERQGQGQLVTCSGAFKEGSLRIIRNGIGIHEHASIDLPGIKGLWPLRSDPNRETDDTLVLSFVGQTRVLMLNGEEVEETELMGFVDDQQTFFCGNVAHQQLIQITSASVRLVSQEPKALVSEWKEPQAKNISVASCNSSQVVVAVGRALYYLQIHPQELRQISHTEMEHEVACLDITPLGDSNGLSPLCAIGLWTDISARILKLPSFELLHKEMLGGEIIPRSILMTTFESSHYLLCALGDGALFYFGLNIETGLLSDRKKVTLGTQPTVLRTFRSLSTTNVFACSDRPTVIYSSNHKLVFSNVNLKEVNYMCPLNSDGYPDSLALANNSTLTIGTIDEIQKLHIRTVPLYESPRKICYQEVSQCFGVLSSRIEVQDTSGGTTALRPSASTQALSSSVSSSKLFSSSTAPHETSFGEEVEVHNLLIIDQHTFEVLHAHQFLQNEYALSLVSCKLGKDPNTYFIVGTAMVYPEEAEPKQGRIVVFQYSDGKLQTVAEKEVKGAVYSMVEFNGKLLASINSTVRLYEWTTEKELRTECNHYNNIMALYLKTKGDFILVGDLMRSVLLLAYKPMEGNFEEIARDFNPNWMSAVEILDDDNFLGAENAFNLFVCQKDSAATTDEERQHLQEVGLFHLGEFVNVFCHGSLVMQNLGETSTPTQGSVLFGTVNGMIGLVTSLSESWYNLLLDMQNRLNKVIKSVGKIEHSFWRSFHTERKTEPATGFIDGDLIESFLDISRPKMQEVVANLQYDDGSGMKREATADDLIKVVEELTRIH

| Compound | EC50 [1] [nM] | EC50 [2, 4] [nM] | DC50 (GSPT1; [5]) [nM] | IC50 [3] [nM] | EC50 [2, 6] [nM] | EC50 ([2]; Homo sapiens, HMEC, 120 h, myc-HMEC 3D spheroids (compounds with code D and E), 5 days, read-out: EC50) [nM] | DC50 (GSPT1; GSPT1 degradation, read-out: DC50) [nM] |
| --- | --- | --- | --- | --- | --- | --- | --- |
| COc1cccc(CNC(=O)NCc2ccc3c(c2)C(=O)N(C2CCC(=O)NC2=O)C3)c1 (stereo not drawn) [Compound 53] | > 10000 | > 2000 | > 300 | 364 |  |  |  |
| O=C1CCC(N2Cc3ccc(CNC(=O)NCCc4ccccc4)cc3C2=O)C(=O)N1 (stereo not drawn) [Compound 27] | > 10000 | > 2000 | > 300 | 444 |  |  |  |
| O=C1CCC(N2Cc3ccc(CNC(=O)Nc4cc(F)ccc4F)cc3C2=O)C(=O)N1 (stereo not drawn) [Compound 69] | > 10000 | > 2000 | > 300 | 381 |  |  |  |
| Cc1cc(NC(=O)NCc2ccc3c(c2)C(=O)N(C2CCC(=O)NC2=O)C3)ccc1Cl (stereo not drawn) [Compound 61] | > 10000 | ≤ 400 | ≤ 100 | 381 | 92 |  |  |
| O=C1CCC(N2Cc3ccc(CNC(=O)NCc4ccccc4)cc3C2=O)C(=O)N1 (stereo not drawn) [Compound 24] | > 10000 | > 2000 | > 300 | 1590 |  |  |  |
| Cc1ccccc1NC(=O)NCc1ccc2c(c1)C(=O)N(C1CCC(=O)NC1=O)C2 (stereo not drawn) [Compound 37] | > 10000 | > 2000 | > 300 | 672 |  |  |  |
| O=C1CCC(N2Cc3ccc(CNC(=O)Nc4ccccc4-c4ccccc4)cc3C2=O)C(=O)N1 (stereo not drawn) [Compound 66] | > 10000 | > 2000 | > 300 | 449 |  |  |  |
| Cc1ccc(F)c(NC(=O)NCc2ccc3c(c2)C(=O)N(C2CCC(=O)NC2=O)C3)c1 (stereo not drawn) [Compound 67] | > 10000 | > 2000 | > 300 | 284 |  |  |  |
| CCc1ccccc1NC(=O)NCc1ccc2c(c1)C(=O)N(C1CCC(=O)NC1=O)C2 (stereo not drawn) [Compound 36] | > 10000 | > 2000 | > 300 | 546 |  |  |  |
| O=C1CCC(N2Cc3ccc(CNC(=O)Nc4ccc(Cl)c(Cl)c4)cc3C2=O)C(=O)N1 (stereo not drawn) [Compound 46] | > 10000 | 400 to 2000 | ≤ 100 | 1400 | 469 |  |  |
| CC(C)(C)c1ccccc1NC(=O)NCc1ccc2c(c1)C(=O)N(C1CCC(=O)NC1=O)C2 (stereo not drawn) [Compound 11] | > 10000 | > 2000 | > 300 | 1230 |  |  |  |
| O=C1CCC(N2Cc3ccc(CNC(=O)Nc4cccc(Cl)c4)cc3C2=O)C(=O)N1 (stereo not drawn) [Compound 3] | > 10000 | > 2000 | > 300 | 400 |  |  |  |
| O=C1CCC(N2Cc3ccc(CNC(=O)Nc4ccccc4C(F)(F)F)cc3C2=O)C(=O)N1 (stereo not drawn) [Compound 49] | > 10000 | > 2000 | > 300 | 867 |  |  |  |
| O=C1CCC(N2Cc3ccc(CNC(=O)Nc4ccc(Cl)cc4Cl)cc3C2=O)C(=O)N1 (stereo not drawn) [Compound 45] | > 10000 | > 2000 | > 300 | 472 |  |  |  |
| CCCNC(=O)NCc1ccc2c(c1)C(=O)N(C1CCC(=O)NC1=O)C2 (stereo not drawn) [Compound 14] | > 10000 | > 2000 | > 300 | 1420 |  |  |  |
| Cc1ccc(F)cc1NC(=O)NCc1ccc2c(c1)C(=O)N(C1CCC(=O)NC1=O)C2 (stereo not drawn) [Compound 62] | > 10000 | > 2000 | > 300 | 441 |  |  |  |
| COCCNC(=O)NCc1ccc2c(c1)C(=O)N(C1CCC(=O)NC1=O)C2 (stereo not drawn) [Compound 72] | > 10000 | > 2000 | > 300 | 322 |  |  |  |
| O=C1CCC(N2Cc3ccc(CNC(=O)NCC4CCCCC4)cc3C2=O)C(=O)N1 (stereo not drawn) [Compound 58] | > 10000 | > 2000 | > 300 | 540 |  |  |  |
| O=C1CCC(N2Cc3ccc(CNC(=O)Nc4ccc(F)c(Cl)c4)cc3C2=O)C(=O)N1 (stereo not drawn) [Compound 42] | > 10000 | 400 to 2000 | 100 to 300 | 589 | 1720 | ≤ 2000 | 253 |
| O=C1CCC(N2Cc3ccc(CNC(=O)NC4CCCC4)cc3C2=O)C(=O)N1 (stereo not drawn) [Compound 28] | > 10000 | > 2000 | > 300 | 814 |  |  |  |
| Cc1c(Cl)cccc1NC(=O)NCc1ccc2c(c1)C(=O)N(C1CCC(=O)NC1=O)C2 (stereo not drawn) [Compound 19] | > 10000 | > 2000 | > 300 | 576 |  |  |  |
| CC(C)c1ccc(NC(=O)NCc2ccc3c(c2)C(=O)N(C2CCC(=O)NC2=O)C3)cc1 (stereo not drawn) [Compound 57] | > 10000 | > 2000 | > 300 | 373 |  |  |  |
| CCNC(=O)NCc1ccc2c(c1)C(=O)N(C1CCC(=O)NC1=O)C2 (stereo not drawn) [Compound 15] | > 10000 | > 2000 | > 300 | 902 |  |  |  |
| COc1ccc(NC(=O)NCc2ccc3c(c2)C(=O)N(C2CCC(=O)NC2=O)C3)c(C)c1 (stereo not drawn) [Compound 23] | > 10000 | > 2000 | > 300 | 464 |  |  |  |
| CC(C)NC(=O)NCc1ccc2c(c1)C(=O)N(C1CCC(=O)NC1=O)C2 (stereo not drawn) [Compound 12] | > 10000 | > 2000 | > 300 | 960 |  |  |  |
| CCc1ccc(NC(=O)NCc2ccc3c(c2)C(=O)N(C2CCC(=O)NC2=O)C3)cc1 (stereo not drawn) [Compound 18] | > 10000 | > 2000 | > 300 | 552 |  |  |  |
| O=C1CCC(N2Cc3ccc(CNC(=O)NCC4CC4)cc3C2=O)C(=O)N1 (stereo not drawn) [Compound 26] | > 10000 | > 2000 | > 300 | 907 |  |  |  |
| C[C@@H](NC(=O)NCc1ccc2c(c1)C(=O)N(C1CCC(=O)NC1=O)C2)c1ccccc1 (stereo partly drawn) [Compound 54] | > 10000 | > 2000 | > 300 | 471 |  |  |  |
